Reference: patent US20220273659A1, “HETEROCYCLIC COMPOUNDS AS KINASE INHIBITORS” (NUVATION BIO INC., priority 2019, published 2022)
Where a name gives a salt, the structure may show the parent alone. Read-outs that look alike come from different tables or passages of the source.

Legend:
[1] = tested on: DU4475 breast carcinoma cells; experiment: Cancer cell proliferation assay, single agent (cell viability); type: cell-based; settings: Homo sapiens, DU-4475; Table 4; Rb negative; treatment 144 Hr with medium change at 72 Hr; Cell Titer-Glo or resazurin
Outline: (§1)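 Cells seeded day 1, then exposed on day 2 to 7–9 compound concentrations (e.g. 1.1 nM–10 μM); BT-549 for 24 h, MCF-7 and DU4475 for 144 h with medium change at 72 h. Viability by CellTiter-Glo or resazurin; IC50 from variable-slope sigmoidal fit.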

CDK2 (cyclin A) = biological target: T1, CDK2 (cyclin A) (Homo sapiens, UniProt P24941); experiment: Z'-LYTE kinase assay; type: biochemical
T1 construct: purchased Invitrogen Life Technologies (assay service)
Outline: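 FRET-based Z′-LYTE read-out using 1.22–10.3 ng CDK2/cyclin A with Ser/Thr 12 peptide (2 μM in the 2× mix) and ATP (31 μM as the 4× solution), in HEPES pH 7.5, MgCl2, EGTA and BRIJ-35, for 60 min at room temperature. After 1 h of development, the 445/520 nm emission was read, and percent inhibition was fitted to a four-parameter logistic curve for IC50.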

CDK1 (cyclin B) = biological target: T2, CDK1 (cyclin B) (Homo sapiens, UniProt P06493); experiment: Z'-LYTE kinase assay; type: biochemical
T2 construct: purchased Invitrogen Life Technologies (assay service)
T2 sequence (P06493 whole entry): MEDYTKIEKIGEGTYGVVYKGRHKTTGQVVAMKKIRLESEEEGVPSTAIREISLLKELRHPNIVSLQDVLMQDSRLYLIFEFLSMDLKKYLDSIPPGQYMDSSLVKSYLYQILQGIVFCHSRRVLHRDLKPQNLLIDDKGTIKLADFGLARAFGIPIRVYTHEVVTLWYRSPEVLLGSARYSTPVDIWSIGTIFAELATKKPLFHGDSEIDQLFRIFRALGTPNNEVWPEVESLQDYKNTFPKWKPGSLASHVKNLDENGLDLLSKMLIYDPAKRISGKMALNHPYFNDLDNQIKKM
T2 sequence (P14635 whole entry partner): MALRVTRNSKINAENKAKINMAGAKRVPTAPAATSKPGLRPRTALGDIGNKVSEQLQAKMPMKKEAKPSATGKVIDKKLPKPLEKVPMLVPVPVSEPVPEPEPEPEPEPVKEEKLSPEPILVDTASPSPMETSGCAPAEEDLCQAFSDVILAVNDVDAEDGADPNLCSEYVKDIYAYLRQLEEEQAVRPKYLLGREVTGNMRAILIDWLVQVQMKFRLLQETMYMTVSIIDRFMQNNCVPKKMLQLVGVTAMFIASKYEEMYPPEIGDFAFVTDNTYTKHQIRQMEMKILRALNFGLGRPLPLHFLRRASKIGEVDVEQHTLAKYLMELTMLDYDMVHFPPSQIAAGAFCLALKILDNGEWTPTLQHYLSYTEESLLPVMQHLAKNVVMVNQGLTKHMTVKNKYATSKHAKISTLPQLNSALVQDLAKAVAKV
Protocol: The plates were shaken for 30 seconds, and incubated for 60 minutes at room temperature. […] The plates were read on fluorescence plate reader with Dual emission at 445 nm and 520 nm.
The following equations were used for Z′-LYTE™ Screening Assay Data Analysis.

CDK6 = biological target: T3, CDK6 (Homo sapiens, UniProt Q00534); experiment: In vitro kinase inhibition IC50, luminescence (ADP Glo), retinoblastoma substrate; type: biochemical; settings: read-out: CDK6/D1 IC50
T3 construct: purchased Invitrogen PR8422B
T3 sequence (Q00534 whole entry): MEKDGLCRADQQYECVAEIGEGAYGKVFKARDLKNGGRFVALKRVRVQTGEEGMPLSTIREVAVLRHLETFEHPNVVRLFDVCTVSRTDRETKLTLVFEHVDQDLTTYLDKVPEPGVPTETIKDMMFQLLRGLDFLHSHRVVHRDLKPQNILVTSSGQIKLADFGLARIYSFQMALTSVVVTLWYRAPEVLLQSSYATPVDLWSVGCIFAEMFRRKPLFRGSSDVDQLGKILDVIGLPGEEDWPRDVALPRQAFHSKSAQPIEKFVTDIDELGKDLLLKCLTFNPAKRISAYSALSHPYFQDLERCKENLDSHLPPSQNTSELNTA
T3 sequence (P24385 whole entry partner): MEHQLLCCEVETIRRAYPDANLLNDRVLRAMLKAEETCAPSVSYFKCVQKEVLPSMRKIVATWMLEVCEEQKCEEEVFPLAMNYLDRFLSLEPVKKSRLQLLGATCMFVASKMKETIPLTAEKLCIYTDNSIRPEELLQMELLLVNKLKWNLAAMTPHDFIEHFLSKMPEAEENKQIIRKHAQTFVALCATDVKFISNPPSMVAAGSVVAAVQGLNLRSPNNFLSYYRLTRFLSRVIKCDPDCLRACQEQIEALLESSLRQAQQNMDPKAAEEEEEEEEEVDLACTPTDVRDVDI
Outline: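 Recombinant CDK6 (5 nM) with retinoblastoma substrate (1 μM) and 25 μM ATP, compound at final 0.1–200 nM, incubated 2 h at room temperature. ADP formed detected by ADP-Glo luminescence. IC50 from four-parameter logistic fit of percent inhibition.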

CDK4 = biological target: T4, CDK4 (Homo sapiens, UniProt P11802); experiment: as above; type: biochemical; settings: read-out: CDK4/D1 IC50
T4 construct: purchased Invitrogen PR8064A
T4 sequence (P11802 whole entry): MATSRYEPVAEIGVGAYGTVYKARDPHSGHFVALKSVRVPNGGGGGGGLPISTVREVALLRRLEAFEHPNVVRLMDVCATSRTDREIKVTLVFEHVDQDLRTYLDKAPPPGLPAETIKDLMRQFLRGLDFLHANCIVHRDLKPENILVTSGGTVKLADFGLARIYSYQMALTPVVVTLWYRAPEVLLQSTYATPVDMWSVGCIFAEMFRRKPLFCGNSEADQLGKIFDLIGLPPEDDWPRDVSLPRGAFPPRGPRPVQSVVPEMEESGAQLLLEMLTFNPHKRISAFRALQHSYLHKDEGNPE
T4 sequence (P24385 whole entry partner): as the sequence (P24385 whole entry partner) above
Outline: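 CDK4 enzyme (5 nM, Invitrogen) was combined with test compound and a mix of retinoblastoma substrate (1 μM) plus ATP (25 μM) in kinase buffer, 30 μL/well in 96-well half area white plates. After 2H at room temperature, ADP Glo reagent stopped the reaction for 45 min, then detection reagent was added and luminescence was read.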

PI3Kδ kinase = biological target: T5, PI3Kδ kinase (Homo sapiens, UniProt O00329); experiment: PI3Kδ kinase assay (ADP-Glo, Reaction Biology); type: biochemical
T5 construct: purchased Reaction Biology Corporation (assay service)
T5 sequence (O00329 whole entry): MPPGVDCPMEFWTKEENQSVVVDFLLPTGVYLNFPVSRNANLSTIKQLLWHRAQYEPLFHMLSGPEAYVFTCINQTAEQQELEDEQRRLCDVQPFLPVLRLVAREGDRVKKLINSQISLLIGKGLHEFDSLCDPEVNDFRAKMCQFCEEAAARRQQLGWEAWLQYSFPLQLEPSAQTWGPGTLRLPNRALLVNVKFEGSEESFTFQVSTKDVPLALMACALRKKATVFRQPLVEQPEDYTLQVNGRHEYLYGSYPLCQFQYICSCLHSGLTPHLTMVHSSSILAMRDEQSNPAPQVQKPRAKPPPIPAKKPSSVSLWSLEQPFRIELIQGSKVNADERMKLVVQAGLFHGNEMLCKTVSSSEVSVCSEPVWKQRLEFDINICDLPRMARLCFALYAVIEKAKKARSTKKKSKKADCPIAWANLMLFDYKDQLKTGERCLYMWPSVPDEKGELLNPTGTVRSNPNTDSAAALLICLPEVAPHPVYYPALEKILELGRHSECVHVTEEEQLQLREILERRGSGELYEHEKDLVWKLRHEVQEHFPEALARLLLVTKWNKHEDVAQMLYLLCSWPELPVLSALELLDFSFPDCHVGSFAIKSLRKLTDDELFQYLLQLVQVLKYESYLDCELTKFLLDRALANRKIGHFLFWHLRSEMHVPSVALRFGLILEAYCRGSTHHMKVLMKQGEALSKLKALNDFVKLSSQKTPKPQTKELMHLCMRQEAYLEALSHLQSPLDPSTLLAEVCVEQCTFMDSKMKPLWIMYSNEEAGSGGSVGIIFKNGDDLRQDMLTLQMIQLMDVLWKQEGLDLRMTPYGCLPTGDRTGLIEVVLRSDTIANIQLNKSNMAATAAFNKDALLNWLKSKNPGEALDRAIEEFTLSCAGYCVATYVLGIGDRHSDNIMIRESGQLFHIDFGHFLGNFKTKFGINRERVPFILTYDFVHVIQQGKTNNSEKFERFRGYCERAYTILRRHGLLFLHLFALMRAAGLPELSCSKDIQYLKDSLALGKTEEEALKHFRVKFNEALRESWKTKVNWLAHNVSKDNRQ
T5 sequence (P27986 whole entry partner): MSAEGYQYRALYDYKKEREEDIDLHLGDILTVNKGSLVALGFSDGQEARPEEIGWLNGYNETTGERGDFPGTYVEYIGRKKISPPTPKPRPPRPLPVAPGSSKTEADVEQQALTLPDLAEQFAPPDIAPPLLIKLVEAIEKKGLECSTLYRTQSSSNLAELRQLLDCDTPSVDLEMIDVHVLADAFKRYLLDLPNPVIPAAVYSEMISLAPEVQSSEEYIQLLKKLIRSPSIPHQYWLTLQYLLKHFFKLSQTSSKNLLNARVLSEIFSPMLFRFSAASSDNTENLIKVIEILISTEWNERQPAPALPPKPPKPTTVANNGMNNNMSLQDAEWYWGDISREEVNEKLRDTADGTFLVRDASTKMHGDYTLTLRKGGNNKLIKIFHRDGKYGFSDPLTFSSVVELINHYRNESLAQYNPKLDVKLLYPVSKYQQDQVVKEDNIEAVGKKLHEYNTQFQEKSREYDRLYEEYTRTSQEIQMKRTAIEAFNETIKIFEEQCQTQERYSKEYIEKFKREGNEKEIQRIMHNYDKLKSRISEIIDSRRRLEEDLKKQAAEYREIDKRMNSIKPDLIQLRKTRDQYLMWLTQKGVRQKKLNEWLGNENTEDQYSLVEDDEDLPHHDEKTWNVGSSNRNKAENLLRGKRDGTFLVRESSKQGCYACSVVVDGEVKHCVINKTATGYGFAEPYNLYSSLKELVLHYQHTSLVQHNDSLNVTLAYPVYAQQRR
Outline: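 Kinase in Tris-HCl 40 mM pH 7.5, MgCl2 20 mM, orthovanadate 3 mM, DTT 2 mM, 0.05% CHAPS, 1% DMSO, preincubated 10 min at room temperature with compound (about 0.5 nM–100 μM). ATP started a 30-min reaction at 30 °C. ADP-Glo luminescence converted to μM ADP via standard curve; IC50 from nonlinear regression.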

[2] = tested on: MCF-7 breast adenocarcinoma cells; experiment: Cancer cell proliferation assay, single agent (cell viability); type: cell-based; settings: Homo sapiens, MCF7, Table 4; Rb positive; treatment 144 Hr with medium change at 72 Hr; Cell Titer-Glo or resazurin
Outline: as §1

FMS kinase = biological target: T6, FMS kinase (Homo sapiens, UniProt P07333); experiment: LanthaScreen Eu Kinase Binding Assay (ATP, fluorescent-PolyGT substrate); type: biochemical
T6 construct: purchased Invitrogen (Life Technologies)
T6 sequence (P07333 20-972): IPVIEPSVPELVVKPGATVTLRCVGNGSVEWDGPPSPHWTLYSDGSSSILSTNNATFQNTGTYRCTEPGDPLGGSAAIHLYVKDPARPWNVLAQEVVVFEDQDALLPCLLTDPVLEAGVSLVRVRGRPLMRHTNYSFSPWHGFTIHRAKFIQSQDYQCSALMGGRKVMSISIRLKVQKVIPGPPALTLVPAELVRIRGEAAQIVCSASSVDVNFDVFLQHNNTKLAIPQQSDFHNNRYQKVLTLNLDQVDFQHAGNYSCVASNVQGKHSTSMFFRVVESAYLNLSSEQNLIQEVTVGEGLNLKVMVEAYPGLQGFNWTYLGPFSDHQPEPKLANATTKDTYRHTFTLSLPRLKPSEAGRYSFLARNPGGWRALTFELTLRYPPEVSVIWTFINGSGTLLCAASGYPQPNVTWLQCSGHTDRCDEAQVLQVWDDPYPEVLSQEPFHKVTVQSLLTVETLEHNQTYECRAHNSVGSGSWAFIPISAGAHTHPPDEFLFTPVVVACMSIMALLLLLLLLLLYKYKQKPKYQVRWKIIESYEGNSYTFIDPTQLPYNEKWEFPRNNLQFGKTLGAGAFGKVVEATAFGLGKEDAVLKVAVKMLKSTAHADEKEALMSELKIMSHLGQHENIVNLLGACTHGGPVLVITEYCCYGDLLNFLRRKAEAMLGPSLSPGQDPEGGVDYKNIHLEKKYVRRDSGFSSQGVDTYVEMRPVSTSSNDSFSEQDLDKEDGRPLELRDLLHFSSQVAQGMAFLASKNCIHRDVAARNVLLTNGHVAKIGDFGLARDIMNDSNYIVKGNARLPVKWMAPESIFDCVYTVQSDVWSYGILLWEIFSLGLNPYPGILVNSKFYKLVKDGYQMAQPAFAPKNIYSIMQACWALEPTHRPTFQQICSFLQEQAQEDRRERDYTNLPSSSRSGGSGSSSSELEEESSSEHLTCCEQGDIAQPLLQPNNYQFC
Outline: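 Kinase (1.25 nM) preincubated 10 min with 3-fold compound dilutions, then ATP 10 μM and fluorescent PolyGT substrate 200 nM added for 1 h in the dark at room temperature. Stopped with Tb-antibody (4 nM) and EDTA 20 mM; TR-FRET at 340 nm excitation, 495/520 nm emission; IC50 from four-parameter fit.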

| Compound | IC50 [1] [nM] | IC50 (CDK2 (cyclin A)) [nM] | IC50 (CDK1 (cyclin B); read-out: CDK1/B IC50) [nM] | IC50 (CDK6) [nM] | IC50 (CDK4) [nM] | IC50 (PI3Kδ kinase) [nM] | IC50 [2] [nM] | IC50 (FMS kinase) [nM] | IC50 (CDK1 (cyclin B)) [nM] |
| --- | --- | --- | --- | --- | --- | --- | --- | --- | --- |
| CN1CCN(c2ccc(Nc3cc4c(cn3)cc(C#N)c(=O)n4C3CCCC3)cc2)CC1 [Compound No. 87, 1-cyclopentyl-7-((4-(4-methylpiperazin-1-yl)phenyl)amino)-2-oxo-1,2-dihydro-1,6-naphthyridine-3-carbonitrile] | 6700 | > 3640 | > 5000 | 21 | 58 | 549 | – | – | – |
| N#Cc1cc2cnc(Nc3ccc(N4CCNCC4)cc3)cc2n(C2CCCC2)c1=O [Compound No. 88, 1-cyclopentyl-2-oxo-7-((4-(piperazin-4-yl)phenyl)amino)-1,2-dihydro-1,6-naphthyridine-3-carbonitrile] | 1560 | 1100 | > 5000 | 12 | 34 | 905 | – | – | – |
| CN1CCC(c2ccc(Nc3cc4c(cn3)cc(C#N)c(=O)n4C3CCCC3)cc2)CC1 [Compound No. 89, 1-cyclopentyl-7-((4-(1-methylpiperidin-4-yl)phenyl)amino)-2-oxo-1,2-dihydro-1,6-naphthyridine-3-carbonitrile] | 5200 | 874 | > 5000 | 10 | 20 | 751 | – | – | – |
| N#Cc1cc2cnc(Nc3ccc4c(c3)CCNC4)cc2n(C2CCCC2)c1=O [Compound No. 90, 1-cyclopentyl-2-oxo-7-((1,2,3,4-tetrahydroisoquinolin-6-yl)amino)-1,2-dihydro-1,6-naphthyridine-3-carbonitrile] | 4900 | 619 | > 5000 | 115 | 132 | 4940 | – | – | – |
| N#Cc1cc2cnc(Nc3ccc4c(c3)CCNC4)nc2n(C2CCC2)c1=O [Compound No. 91, 8-cyclobutyl-7-oxo-2-((1,2,3,4-tetrahydroisoquinolin-6-yl)amino)-7,8-dihydropyrido[2,3-d]pyrimidine-6-carbonitrile hydrochloride] | 510 | 79 | 913 | 28 | 84 | 705 | – | – | – |
| N#Cc1cc2cnc(Nc3ccc4c(c3)CNCC4)cc2n(C2CCCC2)c1=O [Compound No. 95, 1-cyclopentyl-2-oxo-7-((1,2,3,4-tetrahydroisoquinolin-7-yl)amino)-1,2-dihydro-1,6-naphthyridine-3-carbonitrile] | 1500 | 2040 | > 5000 | > 184 | > 200 | 4700 | 3580 | – | – |
| N#Cc1cc2ccc(Nc3ccc4c(c3)CNCC4)nc2n(C2CCCC2)c1=O [Compound No. 326, 1-cyclopentyl-2-oxo-7-((1,2,3,4-tetrahydroisoquinolin-7-yl)amino)-1,2-dihydro-1,8-naphthyridine-3-carbonitrile] | 4240 | > 5000 | > 5000 | > 200 | > 200 | > 50000 | 3520 | – | – |
| N#Cc1cc2cnc(NC3CCN(S(=O)(=O)C(F)F)CC3)nc2n(C2CCCC2)c1=O [Compound No. 359, 8-cyclopentyl-2-((1-((difluoromethyl)sulfonyl)piperidin-4-yl)amino)-7-oxo-7,8-dihydropyrido[2,3-d]pyrimidine-6-carbonitrile] | 3240 | 1870 | > 5000 | 12 | 1.4 | – | 330 | > 5000 | – |
| Cc1ccc(S(=O)(=O)N2CCC(Nc3ncc4cc(C#N)c(=O)n(C5CCCC5)c4n3)CC2)cc1 [Compound No. 360, 8-cyclopentyl-7-oxo-2-((1-tosylpiperidin-4-yl)amino)-7,8-dihydropyrido[2,3-d]pyrimidine-6-carbonitrile] | 1420 | < 1 | – | 13 | 1.5 | – | 255 | > 5000 | 598 |
| CS(=O)(=O)N1CC[C@@H](Nc2ncc3cc(C#N)c(=O)n(C4CCCC4)c3n2)[C@H](F)C1 [Compound No. 362, 8-cyclopentyl-2-((3R,4R)-3-fluoro-1-(methylsulfonyl)piperidin-4-ylamino)-7-oxo-7,8-dihydropyrido[2,3-d]pyrimidine-6-carbonitrile] | 2680 | 82 | – | 15 | 6 | – | 765 | 90 | 1280 |
| CS(=O)(=O)N1CC[C@H](Nc2ncc3cc(C#N)c(=O)n(C4CCCC4)c3n2)[C@H](F)C1 [Compound No. 363, 8-cyclopentyl-2-((3R,4S)-3-fluoro-1-(methylsulfonyl)piperidin-4-ylamino)-7-oxo-7,8-dihydropyrido[2,3-d]pyrimidine-6-carbonitrile] | 1660 | 17 | – | 12 | 1.7 | – | 265 | 138 | 233 |

Continued by falling IC50 [1], values first:

| IC50 [1] [nM] | IC50 (CDK2 (cyclin A)) [nM] | IC50 (CDK1 (cyclin B); read-out: CDK1/B IC50) [nM] | IC50 (CDK6) [nM] | IC50 (CDK4) [nM] | IC50 (PI3Kδ kinase) [nM] | IC50 [2] [nM] | IC50 (FMS kinase) [nM] | IC50 (CDK1 (cyclin B)) [nM] | Compound |
| --- | --- | --- | --- | --- | --- | --- | --- | --- | --- |
| 1400 | 18 | 117 | 15 | 48 | – | 205 | 1160 | – | CCC(C)n1c(=O)c(C#N)cc2cnc(NC3CCN(S(C)(=O)=O)CC3)nc21 (stereo not shown) [Compound No. 351, 8-(sec-butyl)-2-((1-(methylsulfonyl)piperidin-4-yl)amino)-7-oxo-7,8-dihydropyrido[2,3-d]pyrimidine-6-carbonitrile] |
| 1130 | 29 | – | 21 | 69 | – | 1420 | > 5000 | 143 | CCC(CC)n1c(=O)c(C#N)cc2cnc(NC3CCN(S(C)(=O)=O)CC3)nc21 [Compound No. 352, 2-((1-(methylsulfonyl)piperidin-4-yl)amino)-7-oxo-8-(pentan-3-yl)-7,8-dihydropyrido[2,3-d]pyrimidine-6-carbonitrile] |
| 1040 | < 1 | – | 7.1 | 1.3 | – | 310 | 539 | 157 | N#Cc1cc2cnc(NC3CCN(S(=O)(=O)c4ccc(F)cc4)CC3)nc2n(C2CCCC2)c1=O [Compound No. 361, 8-cyclopentyl-2-((1-((4-fluorophenyl)sulfonyl)piperidin-4-yl)amino)-7-oxo-7,8-dihydropyrido[2,3-d]pyrimidine-6-carbonitrile] |
| 485 | > 5000 | > 5000 | > 200 | > 200 | > 50000 | 1940 | – | – | N#Cc1cc2ccc(Nc3ccc(N4CCNCC4)cc3)nc2n(C2CCCC2)c1=O [Compound No. 94, 1-cyclopentyl-2-oxo-7-((4-(piperazin-1-yl)phenyl)amino)-1,2-dihydro-1,8-naphthyridine-3-carbonitrile] |
| 420 | 16 | 118 | 6 | 15 | 725 | – | – | – | CC1(C)NCCc2cc(Nc3ncc4cc(C#N)c(=O)n(C5CCCC5)c4n3)ccc21 [Compound No. 92, 8-cyclopentyl-2-((1,1-dimethyl-1,2,3,4-tetrahydroisoquinolin-6-yl)amino)-7-oxo-7,8-dihydropyrido[2,3-d]pyrimidine-6-carbonitrile] |
